The record followed here is patent US12673022B2, “Drug delivery system using solution” (Kyoto University, priority 2018, dated 2026).

Series [1] relates to EGFP reporter cells (C2C12 cells). Put plainly: EGFP-SSA assay: uptake of Cas9 protein/gRNA complex into cells (EGFP positive rate). The class given is cell-based, mouse. Particulars: for EGFP positive rate (activity) with different (B) salts: Example 3, reaction solutions 3-1 to 3-6: 250 mM GABA, 50 mM HEPES, salt varied, FIG. 7; for Compound activity: EGFP positive rate (%): Example 1, compound 250.0 mM, reaction solution 1 (550 mM sodium chloride, 1 mM HEPES, Cas9 protein/gRNA), 30 minutes.
Text: EGFP-SSA assay: an abbreviation of EGFP-single strand annealing assay. The reporter cassette shown in FIG. 1 is inserted in EGFP reporter cells. In the middle of the EGFP sequence of the cassette, MmDMD-Ex51 sequence is inserted. Since the presence of MmDMD-Ex51 sequence, by which EGFP ORF is divided, EGFP protein is not usually translated. However, when target sequence of MmDMD-Ex51 is cleaved by Cas9 protein/gRNA complex, the upstream region (EG part) and the downstream region (FP part) of EGFP ORF are annealed via a homology area into a single strand, with the result that a full-length EGFP ORF emerges to produce EGFP protein. Based on this principle, the ratio of the number of cells producing EGFP is checked by the EGFP-SSA assay. In this manner, the amount of Cas9 protein/gRNA complex delivered to cells can be predicted.
(§1) Cas9 protein (0.4 μg), tracrRNA (34.18 ng), MmDmd Ex51 crRNA (29.48 ng), a 1 M HEPES buffer (0.05 μL) and a 5 M aqueous sodium chloride solution (5.5 μL) were mixed and diluted with UltraPure DNase/RNase-Free Distilled Water up to a liquid volume of 37.5 μL so as to obtain final concentrations: 8 ng/μL Cas9 protein, 0.68 ng/μL tracrRNA, 0.59 ng/μL MmDmd Ex51 crRNA, 1 mM HEPES, 550 mM sodium chloride, and 250 mM compound. To this solution, a 1000 mM compound solution (12.5 μL) was added and the solution mixture was incubated at normal temperature for 15 minutes.
as §1, with “buffer (2.5” for “buffer (0.05”, “solution (4.85” for “solution (5.5”, “crRNA, 50” for “crRNA, 1”, “HEPES, 485” for “HEPES, 550”, “minutes. Note that, in the cases where the final concentrations of the compound are 0.69 mM, 25 mM, 100 mM, 125 mM, 160 mM, 200 mM and 500 mM, the compound stock solution was diluted with UltraPure DNase/RNase-Free Distilled Water up to concentrations of 2.76 mM, 100 mM, 400 mM, 500 mM, 640 mM, 800 mM and 2000 mM, respectively, and then, added. […]” for “minutes.”
Cas9 protein (2.0 μg), tracrRNA (170.9 ng), MmDmd Ex51 crRNA (147.4 ng), a 1 M HEPES buffer (12.5 μL), a 5 M aqueous sodium chloride solution (18.35 μL) and a 1 M aqueous GABA solution (62.5 μL) were mixed, diluted with UltraPure DNase/RNase-Free Distilled Water up to a liquid volume of 250 μL so as to obtain final concentrations: 8 ng/μL Cas9 protein, 0.68 ng/μL tracrRNA, 0.59 ng/μL MmDmd Ex51 crRNA, 50 mM HEPES, 250 mM GABA and 367 mM sodium chloride, and incubated at normal temperature for 15 minutes. Note that the addition amount of the 5 M aqueous sodium chloride solution was changed to 24.25 μL in the case of 485 mM sodium chloride and the addition amount was changed to 27.5 μL in the case of 550 mM sodium chloride, respectively.

For series [2] the test system is unchanged. The description is as above. It is filed as cell-based, mouse. Particulars: for Compound activity: EGFP positive rate (%): reaction solution 1 (550 mM sodium chloride, 1 mM HEPES, Cas9 protein/gRNA), 30 minutes; for EGFP positive rate: Example 4, compound 250 mM, FIG. 8.
For series [3] the test system is unchanged. As to the kind of experiment: Number of HOECHST cells detected (cell viability) in the EGFP-SSA assay. The settings on record: Example 1, formula (2).
Procedure: To each of the solutions, a complex of gRNA and Cas9 protein was further dissolved. Mouse myoblasts (C2C12 cells) were contacted with each of the solutions in vitro, and target gene cleavage activity and cell viability were evaluated.
The mark [4] stands for this setting: compound 125.0 mM vs 250 mM GABA positive control on the same plate.
Setting [5] is: compound 250.0 mM vs 250 mM GABA positive control on the same plate.
The mark [6] stands for this setting: compound 200.0 mM vs 250 mM GABA positive control on the same plate.
Where [7] appears, read: compound 500.0 mM vs 250 mM GABA positive control on the same plate.

With `[Cl-].[Na+]` [sodium chloride], the “EGFP positive rate (activity) with different (B) salts” value in series [1] is recorded as “almost the same activity”.

As to `CC(C)(CO)[C@@H](O)C(=O)NCCC(=O)O` [Calcium pantothenate], in series [2] (Example 1, compound 160.0 mM), the “Compound activity: EGFP positive rate (%)” value (from here on “Compound activity … (%)”) came out at 0.25%. Besides, in series [3] (compound 160.0 mM vs 250 mM GABA positive control on the same plate), the “Relative ratio to GABA: Number of HOECHST cells” value (from here on “Relative ratio to GABA: Number”) is reported as 1.50.

Regarding `OCCN1C[C@H](O)[C@@H](O)[C@H](O)[C@H]1CO` [Miglitol], the “Compound activity … (%)” value in series [2] (Example 1, compound 125.0 mM) is 1.55%. For the same molecule, the “Relative ratio to GABA: Number” value in series [3] (setting [4]) was 0.83.

Turning to `Nc1cc[nH]c(=O)n1` [Cytosine], the “Compound activity … (%)” value in series [2] (Example 1, compound 25.0 mM) was 0.61%. Further, the “Relative ratio to GABA: Number” value in series [3] (compound 25.0 mM vs 250 mM GABA positive control on the same plate) turned out to be 0.77.

Take `O=C(O)CCC(O)C(=O)O` (stereo not shown) [2-Hydroxyglutaric acid]: the “Compound activity … (%)” value in series [1] worked out at 1.89%. The “Relative ratio to GABA: Number” value in series [3] (setting [5]) came to 0.83.

For `Nc1ccn([C@@H]2O[C@H](CO)[C@@H](O)[C@H]2O)c(=O)n1` [Cytidine], in series [2] (Example 1, compound 125.0 mM), the “Compound activity … (%)” value amounted to 2.24%. Further, the “Relative ratio to GABA: Number” value in series [3] (setting [4]) is on record as 1.58.

In the case of `OC[C@H]1O[C@@H](O[C@H]2[C@H](O)[C@@H](O)[C@H](O)O[C@@H]2CO)[C@H](O)[C@@H](O)[C@@H]1O` [D(+)-cellobiose], the “Compound activity … (%)” value in series [2] (Example 1, compound 200.0 mM) is reported as 1.18%. The “Relative ratio to GABA: Number” value in series [3] (setting [6]) is recorded as 1.00.

As to `O=c1ccn([C@H]2C[C@H](O)[C@@H](CO)O2)c(=O)[nH]1` [2′-Deoxyuridine], the “Compound activity … (%)” value in series [2] (Example 1, compound 100.0 mM) was 1.10%. For the same molecule, the “Relative ratio to GABA: Number” value in series [3] (compound 100.0 mM vs 250 mM GABA positive control on the same plate) is 0.88.

For `O=P(O)(O)O[C@H]1O[C@H](CO)[C@@H](O)[C@H](O)[C@H]1O` [α-D-Glucose-1-phosphate], the “Compound activity … (%)” value in series [1] is on record as 2.52%. For the same molecule, in series [3] (setting [5]), the “Relative ratio to GABA: Number” value is on record as 1.29.

On to `O=C(O)[C@H](O)[C@@H](O)[C@H](O)[C@H](O)COP(=O)(O)O` [6-Phospho-D-gluconic acid], for which, in series [1], the “Compound activity … (%)” value worked out at 2.61%. The “Relative ratio to GABA: Number” value in series [3] (setting [5]) is listed as 1.31.

As to `Cn1cnc(C[C@H](N)C(=O)O)c1` [1-Methyl-L-histidine], the “Compound activity … (%)” value in series [1] was 3.54%. In addition, in series [3] (setting [5]), the “Relative ratio to GABA: Number” value is 0.68.

As to `CC(O)CCO` (stereo not shown) [1,3-Butylene glycol], in series [2] (Example 1, compound 0.69 mM), the “Compound activity … (%)” value is 3.62%. In series [3] (compound 0.69 mM vs 250 mM GABA positive control on the same plate), the “Relative ratio to GABA: Number” value is 1.03.

On to `CC(C)C(=O)C(=O)O` [Sodium 3-methyl-2-oxobutate], for which the “Compound activity … (%)” value in series [2] (Example 1, compound 200.0 mM) was 1.71%. For the same molecule, in series [3] (setting [6]), the “Relative ratio to GABA: Number” value stood at 0.53.

For the molecule `CNC(=O)NC` [1,3-Dimethylurea], in series [2] (Example 1, compound 500.0 mM), the “Compound activity … (%)” value was 2.64%. Further, the “Relative ratio to GABA: Number” value in series [3] (setting [7]) turned out to be 0.68.

On to `[Cl-].[Cl-].[Mg+2]` [magnesium chloride], for which the “EGFP positive rate (activity) with different (B) salts” value in series [1] was “almost the same activity”.

Turning to `CN1CC(=O)NC1=N` [Creatinine], in series [2] (Example 1, compound 200.0 mM vs 250 mM GABA positive control on the same plate, formula (1)), the “Relative ratio to GABA: EGFP positive rate (%)” value is reported as 2.50. For the same molecule, in series [2] (Example 1, compound 200.0 mM), the “Compound activity … (%)” value worked out at 2.27%. Also, the “Relative ratio to GABA: Number” value in series [3] (setting [6]) was 0.84.

Regarding `NCCC(=O)N[C@@H](Cc1cnc[nH]1)C(=O)O` [L-Carnosine], the “Compound activity … (%)” value in series [2] (Example 1, compound 125.0 mM) was 1.76%. In addition, the “Relative ratio to GABA: Number” value in series [3] (setting [4]) was 0.98.

Take `NCCCC(=O)O` [GABA, γ-aminobutyric acid, reference compound]: the EGFP positive rate was 1.4% in series [1] (Example 4, sodium chloride 550 mM, compound 250 mM, FIG. 8); “less than 1%” in series [2] (sodium chloride 150 mM); “less than 1%” in series [2] (sodium chloride 350 mM). The “Compound activity … (%)” value in series [2] (Example 1, compound 200.0 mM) came out at 1.39%. Also, the “Relative ratio to GABA: Number” value in series [3] (setting [6]) is listed as 1.00.

In the case of `O=C(O)[C@@H]1CC(O)CN1` (stereo partly shown) [4-Hydroxyproline], in series [2] (Example 1, compound 500.0 mM), the “Compound activity … (%)” value is listed as 35.82%. The “Relative ratio to GABA: Number” value in series [3] (setting [7]) amounted to 0.62.
